Reference: patent US6835842B2, “3-nitroisoxazoles and their use in the protection of materials” (Bayer Aktiengesellschaft, priority 2000, dated 2004)
≈ marks a conversion by molar mass, not a printed value.

Legend:
Assay type in all cases: cell-based
Chaetomium globusum = assay: Use Example B: minimum inhibitory concentration against fungi on malt extract agar; conditions: 2 weeks at 28° C., 60-70% relative atmospheric humidity
Method: (§1) The MIC is determined after 2 weeks of storage at 28° C. and 60-70% relative atmospheric humidity.

Aspergillus niger = assay: as above; conditions: 2 weeks at 28° C., 60-70% relative atmospheric humidity
Method: as §1

Penicillium brevicaule = assay: as above; conditions: 2 weeks at 28° C., 60-70% relative atmospheric humidity
Method: as §1

Bacillus subtilis = assay: Use Example A: minimum inhibitory concentration against bacteria on Landy agar; conditions: 3 days at 28° C., 60-70% relative atmospheric humidity
Method: (§2) The MIC is determined after 3 days of storage at 28° C. and 60-70% relative atmospheric humidity.

Pseudomonas aeroginosa = assay: as above; conditions: 3 days at 28° C., 60-70% relative atmospheric humidity
Method: as §2

| MIC (Chaetomium globusum; Chaetomium, 336 h) [µg/mL] | MIC (Aspergillus niger; Aspergillus niger, 336 h) [µg/mL] | MIC (Penicillium brevicaule; Penicillium, 336 h) [µg/mL] | MIC (Bacillus subtilis; Bacillus subtilis, 72 h) [µg/mL] | MIC (Pseudomonas aeroginosa; Pseudomonas, 72 h) [µg/mL] | Compound | Minimum inhibitory concentration Chaetomium globusum (Chaetomium globusum) [ppm] | Minimum inhibitory concentration Aspergillus niger (Aspergillus niger) [ppm] | Minimum inhibitory concentration Penicillium brevicaule (Penicillium brevicaule) [ppm] | Minimum inhibitory concentration Bacillus subtilis (Bacillus subtilis) [ppm] | Minimum inhibitory concentration Pseudomonas aeroginosa (Pseudomonas aeroginosa) [ppm] |
| --- | --- | --- | --- | --- | --- | --- | --- | --- | --- | --- |
| 200 (≈ 1750 µM) | 100 (≈ 877 µM) | 100 (≈ 877 µM) | < 40 | 100 (≈ 877 µM) | O=[N+]([O-])c1ccon1 [Example 1, 3-Nitroisoxazole] | – | – | – | – | – |
| – | – | – | – | – | O=[N+]([O-])c1cc(-c2ccccc2)on1 [Example 2] | 200 | 400 | 200 | <40 | >400 |
| – | – | – | – | – | Cc1cc([N+](=O)[O-])no1 [Example 3] | 200 | 200 | 200 | <40 | 200 |
| – | – | – | – | – | CCCCc1cc([N+](=O)[O-])no1 [Example 4] | 400 | >400 | 400 | <40 | 200 |
| – | – | – | – | – | CCOc1ccc(-c2cc([N+](=O)[O-])no2)cc1Cl [Example 5] | 100 | 400 | 200 | <40 | >400 |
